Activity calls are given as the source filed them. No cut-off for these calls is given here. *1 amine or outer side, *2 acyl side, *3 side chain or, on linkers, in order; H or OH if unused. Where a SMILES comes first, the peptide text is derived from it. Bridges are numbered along the chain shown (N, C = ends). [ ]: non-standard residue; d: D form. Phe(3R-OH) = O=C([C@@H](N[*:1])[C@H](O[*:3])c1ccccc1)[*:2]; NMeTrp(4-OMe) = CN[C@@H](Cc1c[nH]c2cccc(OC)c12)C(=O)O; NMeT = CN[C@H](C(=O)O)[C@@H](C)O; NMeL = CN[C@@H](CC(C)C)C(=O)O; NMeV = CN[C@H](C(=O)O)C(C)C
What was measured:
HCT-116 [1] = test: Induction of cell cycle arrest in human HCT116 cells assessed as accumulation at G0/G1 phase at 5 uM incubated for 18 hrs by propidium iodide staining based flow cytometry (reference value: 43.3%); type: functional
A549 = test: Antiproliferative activity against human A549 cells after 72 hrs by sulforhodamine B assay; type: functional, cell-based; conditions: A549, 72 h
SK-HEP1 = test: Antiproliferative activity against human SKHEP1 cells after 72 hrs by sulforhodamine B assay; type: functional, cell-based; conditions: SK-HEP1, 72 h
MRC5 = test: Antiproliferative activity against human MRC5 cells after 72 hrs by sulforhodamine B assay; type: cell-based; conditions: MRC5, 72 h
HCT-116 [2] = test: Induction of morphological changes in human HCT116 cells assessed as appearance of pin-point shape cells at 4 to 20 uM by inverted phase-contrast microscopic method; type: functional, cell-based
HCT-116 [3] = test: Downregulation of MCM4 gene expression in human HCT116 cells assessed as fold change at 15 uM incubated for 24 hrs by cDNA microarray analysis relative to control; type: functional
HCT-116 [4] = test: Downregulation of MCM5 gene expression in human HCT116 cells assessed as fold change at 15 uM incubated for 24 hrs by cDNA microarray analysis relative to control; type: functional
HCT-116 [5] = test: Downregulation of MCM10 gene expression in human HCT116 cells assessed as fold change at 15 uM incubated for 24 hrs by cDNA microarray analysis relative to control; type: functional
HCT-116 [6] = test: Downregulation of DSCC1 gene expression in human HCT116 cells assessed as fold change at 15 uM incubated for 24 hrs by cDNA microarray analysis relative to control; type: functional
HCT-116 [7] = test: Downregulation of HIST1H2BM gene expression in human HCT116 cells assessed as fold change at 15 uM incubated for 24 hrs by cDNA microarray analysis relative to control; type: functional
HCT-116 [8] = test: Downregulation of FAM111B gene expression in human HCT116 cells assessed as fold change at 15 uM incubated for 24 hrs by cDNA microarray analysis relative to control; type: functional
HCT-116 [9] = test: Downregulation of HSPA1A gene expression in human HCT116 cells assessed as fold change at 15 uM incubated for 24 hrs by cDNA microarray analysis relative to control; type: functional
HCT-116 [10] = test: Induction of cell cycle arrest in human HCT116 cells assessed as accumulation at S phase at 5 uM incubated for 18 hrs by propidium iodide staining based flow cytometry (reference value: 26.8%); type: functional
HCT-116 [11] = test: Induction of cell cycle arrest in human HCT116 cells assessed as accumulation at G0/G1 phase at 10 uM incubated for 18 hrs by propidium iodide staining based flow cytometry (reference value: 43.3%); type: functional
HCT-116 [12] = test: Induction of cell cycle arrest in human HCT116 cells assessed as accumulation at S phase at 10 uM incubated for 18 hrs by propidium iodide staining based flow cytometry (reference value: 26.8%); type: functional
HCT-116 [13] = test: Induction of cell cycle arrest in human HCT116 cells assessed as accumulation at G2/M phase at 10 uM incubated for 18 hrs by propidium iodide staining based flow cytometry (reference value: 25.1%); type: functional
HCT-116 [14] = test: Induction of cell cycle arrest in human HCT116 cells assessed as accumulation at sub-G1 phase at 10 uM incubated for 18 hrs by propidium iodide staining based flow cytometry (reference value: 0.9%); type: functional
HCT-116 [15] = test: Induction of cell cycle arrest in human HCT116 cells assessed as accumulation at G2/M phase at 20 uM incubated for 18 hrs by propidium iodide staining based flow cytometry (reference value: 25.1%); type: functional
HCT-116 [16] = test: Induction of cell cycle arrest in human HCT116 cells assessed as accumulation at G0/G1 phase incubated for 18 hrs by propidium iodide staining based flow cytometry; type: functional
HCT-116 [17] = test: Decrease in cell cycle associated protein expression in human HCT116 cells assessed as reduction in CDK2 expression at 5 to 20 uM after 24 hrs by Western blot analysis; type: functional, cell-based
HCT-116 [18] = test: Decrease in cell cycle associated protein expression in human HCT116 cells assessed as reduction in CDK6 expression at 5 to 20 uM after 24 hrs by Western blot analysis; type: functional, cell-based
HCT-116 [19] = test: Downregulation of MCM4 mRNA expression in human HCT116 cells after 12 hrs by RT-PCR method; type: functional, cell-based
HCT-116 [20] = test: Downregulation of MCM4 protein expression in human HCT116 cells at 5 to 20 uM after 24 hrs by Western blot analysis; type: functional, cell-based
HCT-116 [21] = test: Induction of cell cycle arrest in human HCT116 cells assessed as accumulation at G0/G1 phase at 10 uM incubated for 24 hrs by propidium iodide staining based flow cytometry (reference value: 54.7%); type: functional
HCT-116 [22] = test: Induction of cell cycle arrest in human HCT116 cells assessed as accumulation at G2/M phase at 10 uM incubated for 24 hrs by propidium iodide staining based flow cytometry (reference value: 15.7%); type: functional
HCT-116 [23] = test: Induction of cell cycle arrest in human HCT116 cells assessed as accumulation at sub-G1 phase at 10 uM incubated for 24 hrs by propidium iodide staining based flow cytometry (reference value: 4.8%); type: functional
HCT-116 [24] = test: Induction of cell cycle arrest in human HCT116 cells assessed as accumulation at S phase at 20 uM incubated for 24 hrs by propidium iodide staining based flow cytometry (reference value: 21.2%); type: functional
HCT-116 [25] = test: Induction of apoptosis in human HCT116 cells assessed as increase in cleaved caspase 8 level after 24 hrs by Western blot analysis; type: functional, cell-based
HCT-116 [26] = test: Induction of apoptosis in human HCT116 cells assessed as reduction in uncleaved full length caspase 7 level after 24 hrs by Western blot analysis; type: functional, cell-based
HCT-116 [27] = test: Induction of apoptosis in human HCT116 cells assessed as reduction in Bcl-2 level at 5 to 20 uM after 24 hrs by Western blot analysis; type: functional, cell-based
HCT-116 [28] = test: Induction of apoptosis in human HCT116 cells assessed as reduction in Bid level at 5 to 20 uM after 24 hrs by Western blot analysis; type: functional, cell-based
HCT-116 [29] = test: Induction of apoptosis in human HCT116 cells assessed as reduction in survivin level at 5 to 20 uM after 24 hrs by Western blot analysis; type: functional, cell-based
Mus musculus [30] = test: In vivo modulation of Skp2-p27 axis in tumor of BALB/c nude mouse xenografted with human HCT116 cells assessed as downregulation of Skp2 mRNA level at 5 to 10 m/kg, ip administered thrice a week for 3.5 weeks by RT-PCR method; type: functional, organism-based
Mus musculus [31] = test: In vivo modulation of MCM4 in tumor of BALB/c nude mouse xenografted with human HCT116 cells assessed as downregulation of MCM4 mRNA level at 5 to 10 m/kg, ip administered thrice a week for 3.5 weeks by RT-PCR method; type: functional, organism-based
Mus musculus [32] = test: In vivo modulation of Skp2-p27 axis in tumor of BALB/c nude mouse xenografted with human HCT116 cells assessed as downregulation of Skp2 level at 5 to 10 m/kg, ip administered thrice a week for 3.5 weeks by Western blot analysis; type: functional, organism-based
Mus musculus [33] = test: In vivo modulation of Skp2-p27 axis in tumor of BALB/c nude mouse xenografted with human HCT116 cells assessed as upregulation of p27 level at 5 to 10 m/kg, ip administered thrice a week for 3.5 weeks by Western blot analysis; type: functional, organism-based

- IC50 (A549): 8.35 µM
- IC50 (SK-HEP1): 8.21 µM
SMILES: CN[C@H](C(=O)N[C@H](C(=O)N[C@@H]1C(=O)N(C)[C@@H]([C@@H](C)O)C(=O)N[C@@H](C(C)C)C(=O)N(C)[C@@H](CC(C)C)C(=O)N[C@@H](C(C)C)C(=O)N(C)[C@@H](C(C)C)C(=O)N(C)[C@@H](Cc2c[nH]c3cccc(OC)c23)C(=O)N[C@@H](C(C)C)C(=O)N[C@@H]([C@H](O)c2ccccc2)C(=O)N[C@@H](C(C)C)C(=O)O[C@@H]1C)C(C)C)C(C)C (H-[NMeV]VT[NMeT]V[NMeL]V[NMeV][NMeTrp(4-OMe)]V[Phe(3R-OH)]V; ester 3-C)
- Activity (HCT-116 [1]): 45.8%
- IC50 (MRC5): > 50 µM
- Activity (HCT-116 [2]): Active
- fold change (FC) (HCT-116 [3]): 6.074
- fold change (FC) (HCT-116 [4]): 5.219
- fold change (FC) (HCT-116 [5]): 4.889
- fold change (FC) (HCT-116 [6]): 4.856
- fold change (FC) (HCT-116 [7]): 7.527
- fold change (FC) (HCT-116 [8]): 7.557
- fold change (FC) (HCT-116 [9]): 4.43
- Activity (HCT-116 [10]): 27.5%
- Activity (HCT-116 [11]): 51.4%
- Activity (HCT-116 [12]): 26.6%
- Activity (HCT-116 [13]): 15.4%
- Activity (HCT-116 [14]): 1.8%
- Activity (HCT-116 [15]): 16.9%
- Activity (HCT-116 [16]): Dose-dependent effect
- inhibition (HCT-116 [17]): Active
- inhibition (HCT-116 [18]): Active
- inhibition (HCT-116 [19]): Dose-dependent effect
- inhibition (HCT-116 [20]): Active
- Activity (HCT-116 [21]): 62.7%
- Activity (HCT-116 [22]): 16.1%
- Activity (HCT-116 [23]): 14.7%
- Activity (HCT-116 [24]): 24.1%
- Activity (HCT-116 [25]): Dose-dependent effect
- Activity (HCT-116 [26]): Dose-dependent effect
- Activity (HCT-116 [27]): Active
- Activity (HCT-116 [28]): Active
- Activity (HCT-116 [29]): Active
- inhibition (Mus musculus [30]): Active
- inhibition (Mus musculus [31]): Active
- inhibition (Mus musculus [32]): Active
- Activity (Mus musculus [33]): Active

From ChEMBL document CHEMBL4342450, “Antitumor Activity of Ohmyungsamycin A through the Regulation of the Skp2-p27 Axis and MCM4 in Human Colorectal Cancer Cells” (J Nat Prod, 2020)
